For 3 compounds, IC50 results are on record in ChEMBL document CHEMBL5107981, “A comprehensive comparative study on LSD1 in different cancers and tumor specific LSD1 inhibitors” (Eur J Med Chem, 2022).

Test [1] in a line: Antiproliferative activity against human AML cell. The class given is functional, cell-based. The following applies: Acute myeloid leukemic cell.
The nature of test [2]: Antiproliferative activity against human SCLC cell. Format: functional, cell-based. The following applies: Small cell lung cancer cell line.
Test [3] deals with T1, Lysine-specific histone demethylase 1A (Homo sapiens, UniProt O60341).
Description: Inhibition of LSD1 (unknown origin)
Test [4] deals with T1, Lysine-specific histone demethylase 1A. The test can be described thus: Inhibition of recombinant LSD1 (unknown origin) incubated for 1 hr.

Consider `O=C(O)c1ccc(CN2CCC(CN[C@@H]3C[C@H]3c3ccccc3)CC2)cc1` [GSK2879552], for which the IC50 in test [1] and in test [2] was 24 nM in each case.

Compound `C/C(=N\NC(=O)c1cccc(S(=O)(=O)N2CCN(C)CC2)c1)c1cc(Cl)ccc1O` registered an IC50 in test [3] of 13 nM.

As to `Oc1ccc(/C=C/c2cc(O)cc(O)c2)cc1` [RESVERATROL], the IC50 in test [4] is 15000 nM.
